Reference: publication PMC8223498 (Journal of Fluorine Chemistry, 2021)

Assays:
Assay type in all cases: biochemical
[1] = target: T1, human N-terminally His6-tagged AspH315–758 (Homo sapiens, UniProt Q12797); test: SPE-MS inhibition assay, AspH (peptide hydroxylation); details: 0.05 μM His6-AspH315–758, 1.0 μM hFX-CP101–119 peptide, n = 2, mean ± SD
T1 sequence (Q12797 315-758): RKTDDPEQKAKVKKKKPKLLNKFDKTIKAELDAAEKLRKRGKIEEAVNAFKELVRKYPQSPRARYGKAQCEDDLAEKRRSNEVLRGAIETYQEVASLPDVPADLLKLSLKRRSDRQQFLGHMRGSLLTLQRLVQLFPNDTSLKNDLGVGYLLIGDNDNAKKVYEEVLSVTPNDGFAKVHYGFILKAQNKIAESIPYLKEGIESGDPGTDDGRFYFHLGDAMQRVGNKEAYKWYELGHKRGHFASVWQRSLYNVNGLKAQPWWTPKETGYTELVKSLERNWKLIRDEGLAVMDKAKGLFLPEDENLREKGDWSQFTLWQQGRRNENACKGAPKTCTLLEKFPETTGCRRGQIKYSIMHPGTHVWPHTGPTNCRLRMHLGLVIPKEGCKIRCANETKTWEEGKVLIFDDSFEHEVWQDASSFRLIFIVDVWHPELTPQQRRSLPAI
Method: (§1) KDM4E was used as a representative JmjC KDM; it catalyzes the demethylation of histone 3 (H3) N^ε-di- and trimethylated Lys9 (H3K9me3/me2), [11], [12].
(§2) 2OG oxygenases were produced and purified as described in the cited literature, the peptide substrate for AspH was synthesized according to the cited literature while the peptide substrates for FIH and KDM4E were obtained from GL Biochem (Shanghai) Ltd (Shanghai, China). All peptide were prepared with C-terminal amides.

[2] = target: T2, KDM4E (Homo sapiens, UniProt B2RXH2); test: SPE-MS inhibition assay, KDM4E (peptide demethylation); details: 10.0 μM H3_1–15K9me3, n = 2, mean ± SD, inactive = no inhibition at 100 – 0.002 μM
T2 sequence (B2RXH2 1-506): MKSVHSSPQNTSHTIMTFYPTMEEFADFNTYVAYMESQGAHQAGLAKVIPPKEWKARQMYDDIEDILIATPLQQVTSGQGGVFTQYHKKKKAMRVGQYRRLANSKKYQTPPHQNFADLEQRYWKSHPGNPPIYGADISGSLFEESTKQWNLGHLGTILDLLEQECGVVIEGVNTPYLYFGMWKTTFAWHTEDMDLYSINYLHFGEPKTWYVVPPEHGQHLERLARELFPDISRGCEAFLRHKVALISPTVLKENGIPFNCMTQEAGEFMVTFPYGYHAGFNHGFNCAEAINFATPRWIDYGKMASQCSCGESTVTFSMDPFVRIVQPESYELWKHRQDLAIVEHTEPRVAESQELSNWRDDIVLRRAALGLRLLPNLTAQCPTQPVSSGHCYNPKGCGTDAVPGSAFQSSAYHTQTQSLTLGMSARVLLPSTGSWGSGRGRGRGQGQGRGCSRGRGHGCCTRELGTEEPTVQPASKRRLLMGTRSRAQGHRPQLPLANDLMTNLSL
Method: as §1, §2

[3] = target: recombinant human N-terminally His6-tagged RIOX2_26–465 (Homo sapiens, UniProt Q8IUF8); test: SPE-MS inhibition assay, RIOX2 (peptide hydroxylation); details: n = 2, mean ± SD, inactive = no inhibition at 100 – 0.002 μM; for IC50: 0.15 μM His6-RIOX2_26–465, 5.0 μM RPL27A31–49 peptide; for IC50 RIOX2: […] His6-RIOX2_26–465, 5.0 μM RPL27A31–49 peptide
[4] = target: T3, N-terminally His6-tagged FIH (Homo sapiens, UniProt Q9NWT6); test: SPE-MS inhibition assay, FIH (peptide hydroxylation); details: 5.0 μM HIF-1α CAD (788–822), n = 2, mean ± SD, inactive = no inhibition at 100 – 0.002 μM
T3 construct: His6 (N); made in house
Method: as §1, §2

recombinant human N-terminally His6-tagged RIOX2_26–465, sequence (Q8IUF8 26-465): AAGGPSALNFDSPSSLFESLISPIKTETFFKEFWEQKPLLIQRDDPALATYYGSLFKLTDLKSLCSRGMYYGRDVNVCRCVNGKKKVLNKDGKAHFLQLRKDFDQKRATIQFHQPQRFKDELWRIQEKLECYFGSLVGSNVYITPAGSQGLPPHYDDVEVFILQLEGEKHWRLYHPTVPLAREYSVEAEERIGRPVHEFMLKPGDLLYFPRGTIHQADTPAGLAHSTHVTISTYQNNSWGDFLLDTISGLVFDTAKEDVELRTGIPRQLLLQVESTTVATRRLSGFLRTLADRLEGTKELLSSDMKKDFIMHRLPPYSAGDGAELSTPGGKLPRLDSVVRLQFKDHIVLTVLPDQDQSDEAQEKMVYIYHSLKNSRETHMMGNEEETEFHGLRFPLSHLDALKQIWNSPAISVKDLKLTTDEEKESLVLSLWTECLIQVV
T3 sequence (Q9NWT6 whole entry): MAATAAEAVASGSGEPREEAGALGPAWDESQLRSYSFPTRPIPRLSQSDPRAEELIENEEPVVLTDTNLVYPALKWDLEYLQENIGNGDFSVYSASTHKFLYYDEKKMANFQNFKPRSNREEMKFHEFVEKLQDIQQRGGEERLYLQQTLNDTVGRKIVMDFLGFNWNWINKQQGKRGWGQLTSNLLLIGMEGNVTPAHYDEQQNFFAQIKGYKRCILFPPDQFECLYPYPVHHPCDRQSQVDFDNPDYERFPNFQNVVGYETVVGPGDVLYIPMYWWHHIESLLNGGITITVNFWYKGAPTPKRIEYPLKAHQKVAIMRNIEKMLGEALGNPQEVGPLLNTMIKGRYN

Work on `O=C(O)c1ccnc(C(=O)O)c1` [2,4-PDCA, pyridine-2,4-dicarboxylate, reference compound] yielded an IC50 [1] of ~30 nM.

With `O=C(O)c1ccnc(C(=O)O)c1F` [compound 7, 3-Fluoropyridine-2,4-dicarboxylic acid] the IC50 [2] was 1300 ± 200 nM, the IC50 [3] was > 50000 nM and the IC50 [1] was 110 ± 10 nM. The IC50 [4] was > 50000 nM.

For `O=C(O)c1cc(C(=O)O)c(F)cn1` [compound 8, 5-Fluoropyridine-2,4-dicarboxylic acid], the IC50 [2] was 1600 ± 300 nM, the IC50 [3] was > 50000 nM and the IC50 [1] was 50 ± 10 nM. The IC50 [4] was > 50000 nM.

With `O=C(O)c1ccnc(C(=O)O)c1C(F)(F)F` [compound 13, 3-Trifluoromethylpyridine-2,4-dicarboxylic acid] the “IC50 KDM4E” value [2] was “^d)inactive”, the “IC50 RIOX2” value [3] was “^d)inactive” and the IC50 [1] was > 50000 nM. The “IC50 FIH” value [4] was “^d)inactive”.

In the case of `O=C(O)c1cc(C(=O)O)c(C(F)(F)F)cn1` [compound 14, 5-Trifluoromethylpyridine-2,4-dicarboxylic acid], the “IC50 KDM4E” value [2] is reported as “^d)inactive”, the “IC50 RIOX2” value [3] is reported as “^d)inactive” and the IC50 [1] is reported as 4200 ± 1000 nM. The “IC50 FIH” value [4] was “^d)inactive”.
